Earlier results as cited in patent US4966770A (priority 1989, dated 1990).

solubility in alcohol: slightly soluble in alcohol | solubility in water: very slightly soluble in water
Structure (SMILES): C[C@]12C=CC(=O)C=C1CC[C@@H]1[C@@H]2C(=O)C[C@@]2(C)[C@H]1CC[C@]2(O)C(=O)CO [prednisone]
